Legend:
[1] = target: T1, ycbD product (aldehyde dehydrogenase) (Bacillus subtilis, UniProt P42236); experiment: Dehydrogenase activity of cell extracts, absorbance at 340 nm; assay type: biochemical; settings: 200 mM substrate, 0.05 mL cell extract (0.25 mg protein); for Relative Activity NAD: 1 mM NAD; for Relative Activity NADP: 1 mM NADP
T1 construct: made in house; host or cells: E. coli BLR(DE3), [ycbD+ycbE]-pET30a, desalted cell extract
Protocol: The dehydrogenase activity of the cell extracts was followed using acetaldehyde, glucuronic acid, and glucurono-3,6-lactone as substrates in 96-well plates. Each assay mixture contained 100 mM potassium phosphate, pH 7.8, 1 mM NADP or NAD, 200 mM substrate, and between 0.02 and 0.1 mL cell extract (0.1 to 0.5 mg protein). The reactions were started by adding the enzyme and were incubated at 30° C. in the spectrophotometer. The dehydrogenase activity was followed by monitoring the linear change in absorbance at 340 nm over a 10 minute time period (referenced to a reaction mixture without substrate).

serum cholesterol = settings: mammals; cited from earlier work
beta-glucuronidase = settings: cited from earlier work
[2] = target: T2, myo-inositol oxygenase (MIO) (Homo sapiens, UniProt Q9UGB7); experiment: MIO-orcinol assay of recombinant human MIO; assay type: biochemical
T2 construct: made in house; host or cells: Hi5 / Sf-9 insect cells (baculovirus, pFastBacHTa); also E. coli DH10B (pTRC99A) and S. cerevisiae INVSc1 (pYES2)
T2 sequence (Q9UGB7 with tags, fused parts or gaps): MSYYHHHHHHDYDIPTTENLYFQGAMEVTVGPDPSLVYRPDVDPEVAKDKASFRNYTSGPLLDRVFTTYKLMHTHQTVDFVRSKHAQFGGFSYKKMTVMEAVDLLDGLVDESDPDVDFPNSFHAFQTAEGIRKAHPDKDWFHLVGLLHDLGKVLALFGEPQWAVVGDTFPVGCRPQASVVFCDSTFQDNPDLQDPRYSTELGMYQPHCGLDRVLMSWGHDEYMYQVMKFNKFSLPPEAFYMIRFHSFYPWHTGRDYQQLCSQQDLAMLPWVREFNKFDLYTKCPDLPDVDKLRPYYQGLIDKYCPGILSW
Protocol: MIO activity was determined using a modification of the method described by Reddy et al. (J. Biol. Chem., 256, 8510 (1981)). Briefly, this assay is based on the reaction of orcinol (5-methyl-1,3-benzenediol) with the MIO enzyme reaction product, D-glucuronic acid. The standard assay mixture contained 50 mM Tris-HCl (pH 8.0), 2.0 mM cysteine, 1.0 mM ferrous ammonium sulfate, 60 mM myo-inositol, and appropriate quantities of enzyme in a total volume of 0.50 mL. The stock L-cysteine solution (0.10 M) was prepared every two weeks, and the stock ferrous ammonium sulfate solution (0.50 M) was prepared fresh daily. The enzyme solutions consisted of cell extracts prepared as described or chromatography fractions generated during the partial purification of the enzyme. Prior to initiating the reaction by addition of the substrate myo-inositol (stock solution of 0.50 M, dissolved in 50 mM TEGG), all other reagents were mixed together by vortexing and incubated for 5 minutes at 30° C. The substrate was then added to initiate the assay. After vortex-mixing the components, the reaction was carried out in an air atmosphere at 30° C. with shaking at 200 rpm for 10 minutes. The reaction was terminated by the addition of 75 μL of 20% trichloroacetic acid. After vortexing, the assay mixture was transferred to a 1.5 mL polypropylene microcentrifuge tube, and the precipitated polypeptide was separated by centrifugation at 21,000×g for 3 minutes at 25° C. The supernatant was transferred to a new 1.5 mL polypropylene microcentrifuge tube, and the D-glucuronic acid concentration was determined by the orcinol colorimetric assay.
The orcinol colorimetric determination assay was performed as follows. Freshly prepared orcinol reagent (0.6 mL; 0.4% (w/v) orcinol, 0.09% (w/v) ferric trichloride hexahydrate in concentrated HCl) was added to 0.3 mL of the clear supernatant. The mixture was vortex-mixed and then incubated in a boiling water bath for 30 minutes. After cooling to 25° C., the mixture was cleared by centrifugation at 21,000×g for 3 minutes. The supernatant was transferred to a disposable cuvette, and the absorbance was measured at 660 nm. A standard curve was generated by replacing the enzyme fraction with D-glucuronic acid (0 to 40 μg/mL) and carrying out the assay as described above. […]
All reactions were run in duplicate, and all polypeptide fractions were assayed with and without added myo-inositol substrate (an equal volume of TEGG buffer with or without substrate was added to initiate the assay). The average of the absorbance readings of the assay mixtures carried out without substrate was subtracted from the average of readings of the assay mixtures containing substrate. […]

glucuronate reductase = target: T3, glucuronate reductase (Rattus norvegicus, UniProt P51635, T2A); experiment: GLR assay, loss of absorbance at 340 nm (loss of NADPH); assay type: biochemical
T3 construct: His tag (pET30a fusion); made in house; host or cells: E. coli BLR(DE3), pET30a
T3 sequence (P51635 1-325 T2A): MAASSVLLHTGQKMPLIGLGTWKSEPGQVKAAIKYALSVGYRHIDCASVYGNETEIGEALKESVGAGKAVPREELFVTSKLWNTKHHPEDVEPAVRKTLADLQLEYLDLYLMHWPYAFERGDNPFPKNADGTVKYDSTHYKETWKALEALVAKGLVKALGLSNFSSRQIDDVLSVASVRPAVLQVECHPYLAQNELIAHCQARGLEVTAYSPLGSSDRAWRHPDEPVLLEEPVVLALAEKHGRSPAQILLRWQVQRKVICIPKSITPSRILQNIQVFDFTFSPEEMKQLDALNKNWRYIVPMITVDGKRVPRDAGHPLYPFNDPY
Protocol: GLR was assayed by following the loss of absorbance at 340 nm (loss of NADPH) using 0.3 mM NADPH, 10 mM glucuronic acid, and variable amount of enzyme in 100 mM sodium phosphate, pH 6.6 (Hayashi et al., J. Biochem., 95:2223-2232 (1984)). 1-2 micromoles of NADPH were typically consumed per minute per mg protein.

T1 sequence (P42236 whole entry): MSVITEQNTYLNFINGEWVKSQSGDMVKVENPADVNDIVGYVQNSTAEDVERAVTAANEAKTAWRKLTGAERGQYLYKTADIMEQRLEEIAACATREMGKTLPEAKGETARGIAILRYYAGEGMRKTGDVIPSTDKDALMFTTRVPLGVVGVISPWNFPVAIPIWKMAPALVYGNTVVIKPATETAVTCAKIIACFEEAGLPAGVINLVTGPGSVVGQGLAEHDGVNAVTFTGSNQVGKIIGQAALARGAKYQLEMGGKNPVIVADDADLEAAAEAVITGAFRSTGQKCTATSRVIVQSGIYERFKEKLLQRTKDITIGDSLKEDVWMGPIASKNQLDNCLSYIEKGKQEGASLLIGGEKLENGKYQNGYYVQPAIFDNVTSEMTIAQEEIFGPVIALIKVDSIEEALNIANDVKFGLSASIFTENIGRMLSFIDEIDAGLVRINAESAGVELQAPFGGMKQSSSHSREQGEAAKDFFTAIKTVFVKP

O=C[C@H](O)[C@@H](O)[C@H](O)[C@H](O)C(=O)O [D-glucuronate]
Relative Activity NAD [1]: 2.4 percentage of maximum activity | Relative Activity NADP [1]: 2.1 percentage of maximum activity

O=C[C@H](O)[C@H]1OC(=O)[C@@H](O)[C@H]1O [D-glucurono-3,6-lactone]
Relative Activity NAD [1]: 2.1 percentage of maximum activity | Relative Activity NADP [1]: 50.6 percentage of maximum activity

O=C(O)[C@@H](O)[C@@H](O)[C@H](O)[C@@H](O)C(=O)O [Glucaric acid]
effect on serum cholesterol (serum cholesterol): lower serum cholesterol | inhibition of beta-glucuronidase (beta-glucuronidase): potent inhibitor

CC=O [acetaldehyde]
Relative Activity NAD [1]: 56.9 percentage of maximum activity | Relative Activity NADP [1]: 100.0 percentage of maximum activity

B1: purified polypeptide: His-tagged human MIO polypeptide, SEQ ID NO:12, expressed by baculovirus in insect cells (protein)
chain: MSYYHHHHHHDYDIPTTENLYFQGAMEVTVGPDPSLVYRPDVDPEVAKDKASFRNYTSGPLLDRVFTTYKLMHTHQTVDFVRSKHAQFGGFSYKKMTVMEAVDLLDGLVDESDPDVDFPNSFHAFQTAEGIRKAHPDKDWFHLVGLLHDLGKVLALFGEPQWAVVGDTFPVGCRPQASVVFCDSTFQDNPDLQDPRYSTELGMYQPHCGLDRVLMSWGHDEYMYQVMKFNKFSLPPEAFYMIRFHSFYPWHTGRDYQQLCSQQDLAMLPWVREFNKFDLYTKCPDLPDVDKLRPYYQGLIDKYCPGILSW
modifications: His tag; human polypeptide with non-human sequences
MIO activity ([2]; Hi5 insect cells, baculovirus expression, FIG. 8): exhibited MIO activity | specific activity ([2]; Nickel-NTA purified to homogeneity, from insect cells): 225 μg glucuronic acid formed per mg polypeptide during a 10 minute assay

B2: human MIO polypeptide: Human myo-inositol oxygenase (ORF EMBL: CAB63064.1) expressed in E. coli or S. cerevisiae, assayed in cell extracts (protein, UniProt Q9UGB7 1-285, looked up)
Inositol oxygenase: MKVTVGPDPSLVYRPDVDPEVAKDKASFRNYTSGPLLDRVFTTYKLMHTHQTVDFVRSKHAQFGGFSYKKMTVMEAVDLLDGLVDESDPDVDFPNSFHAFQTAEGIRKAHPDKDWFHLVGLLHDLGKVLALFGEPQWAVVGDTFPVGCRPQASVVFCDSTFQDNPDLQDPRYSTELGMYQPHCGLDRVLMSWGHDEYMYQVMKFNKFSLPPEAFYMIRFHSFYPWHTGRDYQQLCSQQDLAMLPWVREFNKFDLYTKCPDLPDVDKLRPYYQGLIDKYCPGILSW
specific activity ([2]; E. coli, pTRC99A, IPTG induced, desalted cell extract): 8.8 μg glucuronic acid formed per mg polypeptide in 10 minutes | specific activity ([2]; S. cerevisiae INVSc1, pYES2, cell extract, 12 hours after induction): 13.4 μg glucuronic acid formed per mg polypeptide in 10 minutes

B3: GLR: glucuronate reductase, rat glr expressed from pET30a in E. coli, His-Bind purified (protein, UniProt P51635 2-325, looked up)
Aldo-keto reductase family 1 …: TASSVLLHTGQKMPLIGLGTWKSEPGQVKAAIKYALSVGYRHIDCASVYGNETEIGEALKESVGAGKAVPREELFVTSKLWNTKHHPEDVEPAVRKTLADLQLEYLDLYLMHWPYAFERGDNPFPKNADGTVKYDSTHYKETWKALEALVAKGLVKALGLSNFSSRQIDDVLSVASVRPAVLQVECHPYLAQNELIAHCQARGLEVTAYSPLGSSDRAWRHPDEPVLLEEPVVLALAEKHGRSPAQILLRWQVQRKVICIPKSITPSRILQNIQVFDFTFSPEEMKQLDALNKNWRYIVPMITVDGKRVPRDAGHPLYPFNDPY
modifications: His tag
NADPH consumed (glucuronate reductase; 0.3 mM NADPH, 10 mM glucuronic acid, pH 6.6): 1-2 micromoles per minute per mg p | Specific Activity (purified protein) (glucuronate reductase; His-Bind purified from E. coli): 1 to 3 µmol/min/mg

From patent publication US20080187984A1, “Myo-inositol oxygenases” (Cargill, Incorporated, priority 2001, published 2008)
